Values joined by “and” are separate entries in the source; they are usually repeats but may differ in a detail not shown here. Equal values may be shown once. Where a name gives a salt, the structure may show the parent alone. Read-outs that look alike come from different tables or passages of the source.
What was measured:
[1] = tested on: Tobacco mosaic virus (TMV); assay: Antiphytoviral activity assay (local lesions on host plant leaves); assay type: in vivo, Tobacco mosaic virus on Datura stramonium; conditions: Datura stramonium leaves, compound 100 µg/mL inoculated simultaneously with TMV
Experimental: Leaves of Nicotiana tabacum L. cv. Samsun plants systemically infected with Tobacco mosaic virus (TMV) were ground in 0.06 mol/L phosphate buffer, pH 7.0 (1:1, w/v) to prepare virus inocula. […] Leaves of the local host Datura stramonium L. were dusted with silicon carbide (Sigma-Aldrich, St. Louis, MO, USA) before virus inoculation, and the inoculum was diluted with inoculation buffer to obtain 5–20 lesions per inoculated leaf. Experiments were performed when the experimental plants reached the 4–6 leaf stage.
The tested QAS (10 mg/mL) were dissolved in 4% DMSO and added to the virus inocula at a final concentration of 100 µg/mL. DMSO was added to the control virus inocula at the same concentration. The control and treated plants were then rubbed with the prepared inocula and the antiviral activity of the tested compounds was evaluated by the percentage inhibition of the number of local lesions on the leaves of the treated and control plants as described in [40]. The obtained data were analyzed in Excel (Microsoft Office) and significant differences were determined by t-test.

[2] = tested on: Escherichia coli ATCC25922; assay: Broth microdilution assay (MIC); assay type: cell-based
Experimental: (§1) The antibacterial activity of all compounds was evaluated by determining the minimum inhibitory concentration (MIC), which is defined as the lowest concentration of the compound at which no visible bacterial growth is detected. The compounds were tested against representatives of Gram-positive and Gram-negative strains, including the ESKAPE bacterium Staphylococcus aureus ATCC25923 and the clinical isolate of methicillin-resistant S. aureus (MRSA), which are known for their pathogenicity.
(§2) All microbial strains were maintained at ™80 °C for long-term storage and subcultured on Mueller-Hinton (MH) agar (Biolife, Italy) prior to broth microdilution experiments. The MH plates were stored at +4 °C for no longer than one month.
(§3) Antibacterial activity was evaluated using the Broth Microdilution Assay according to the Clinical and Laboratory Standard Institute’s Methods for Dilution Antimicrobial Susceptibility Test for Bacteria That Grow Aerobically; Approved Standard-Tenth Edition.
(§4) The stock solution of QAS (10 mg/mL) was prepared in 4% DMSO. Then, 100 µL of the tested QAS was added to the first well of the microtiter plate. Twofold serial dilutions in Muller-Hinton broth were performed over the entire plate at a concentration range of 5 mg/mL to 5 µg/mL. […] The minimum inhibitory concentration (MIC) was determined as the lowest concentration at which no visually detectable bacterial growth occurred in the wells.

[3] = tested on: Listeria monocytogenes ATCC7644; assay: Broth microdilution assay (MIC); assay type: cell-based
Experimental: as §1, §2, §3, §4

[4] = tested on: Bacillus cereus ATCC14579; assay: Broth microdilution assay (MIC); assay type: cell-based
Experimental: as §1, §2, §3, §4

[5] = tested on: Enterococcus faecalis ATCC29212; assay: Broth microdilution assay (MIC); assay type: cell-based
Experimental: as §1, §2, §3, §4

[6] = tested on: Pseudomonas aeruginosa ATCC27853; assay: Broth microdilution assay (MIC); assay type: cell-based
Experimental: as §1, §2, §3, §4

[7] = tested on: Staphylococcus aureus ATCC25923; assay: Broth microdilution assay (MIC); assay type: cell-based; conditions: Staphylococcus aureus
Experimental: as §1, §2, §3, §4

[8] = tested on: methicillin-resistant Staphylococcus aureus clinical strain MRSA; assay: Broth microdilution assay (MIC); assay type: cell-based
Experimental: as §1
(§5) The collection included five Gram-positive strains, including Staphylococcus aureus (ATCC 25923 and a methicillin-resistant Staphylococcus aureus clinical strain MRSA), Bacillus cereus ATCC 14579, Enterococcus faecalis ATCC 29212, and Listeria monocytogenes ATCC 7644; and three Gram-negative strains: Escherichia coli ATCC 25922, Pseudomonas aeruginosa ATCC 27853 and the food isolate Salmonella enterica. All microbial strains were maintained at ™80 °C for long-term storage and subcultured on Mueller-Hinton (MH) agar (Biolife, Italy) prior to broth microdilution experiments. The MH plates were stored at +4 °C for no longer than one month.
as §3
(§6) The stock solution of QAS (10 mg/mL) was prepared in 4% DMSO. Then, 100 µL of the tested QAS was added to the first well of the microtiter plate. Twofold serial dilutions in Muller-Hinton broth were performed over the entire plate at a concentration range of 5 mg/mL to 5 µg/mL. To each well, 50 µL of mid-exponentially grown inoculum containing 10^5 CFU/mL in Mueller-Hinton broth was added and incubated at 37 °C for 18 hours. The minimum inhibitory concentration (MIC) was determined as the lowest concentration at which no visually detectable bacterial growth occurred in the wells.

[9] = tested on: Salmonella enterica food isolate; assay: Broth microdilution assay (MIC); assay type: cell-based; conditions: S. enterica food isolate
Experimental: as §1, §5, §3, §6

[10] = ATCC25922, 18 h, E. coli ATCC25922
[11] = ATCC25922, 18 h, E. coli ATCC25922, read-out: MIC
[12] = 18 h, L. monocytogenes ATCC7644, read-out: MIC
[13] = 18 h, B. cereus ATCC14579, read-out: MIC
[14] = 18 h, E. faecalis ATCC29212, read-out: MIC
[15] = 18 h, P. aeruginosa ATCC27853, read-out: MIC
[16] = S. aureus ATCC25923, 18 h, 37 °C, read-out: MIC

SMILES: CCCCCCCCCCCC[N+](C)(C)Cc1ccccc1.[Br-] [BAB, benzalkonium bromide, reference compound]
- Number of local lesions (LLN ± SD) [1]: 0.2 and 0.2±0.2
- Percentage of inhibition of local lesions ([1]; vs control plants): 98.7%

SMILES: ON=Cc1cc[n+](CCCCCCCCBr)cc1.[Br-] [Py-C8Br, N-(8-bromooctyl)-4-hydroxyiminomethylpyridinium bromide]
- MIC [2, 10]: 1250 µg/mL and 3170 µM
- MIC ([3]; ATCC7644, 18 h): 1250 µg/mL and 3170 µM
- MIC ([4]; ATCC14579, 18 h): 2500 µg/mL
- MIC ([5]; ATCC29212, 18 h): 2500 µg/mL and 6340 µM
- MIC ([6]; ATCC27853, 18 h): > 5000 µg/mL and > 12700 µM
- MIC ([7]; ATCC25923, 18 h): 5000 µg/mL
- MIC ([8]; MRSA, 18 h): 2500 µg/mL
- MIC ([9]; 18 h): > 5000 µg/mL and > 12700 µM
- melting point: 100 to 101 °C

SMILES: O=[N+]([O-])c1ccc(C[n+]2ccc(C=NO)cc2)cc1 [Py-BnNO2]
- MIC ([2]; ATCC25922, 18 h): 2500 µg/mL and 7390 µM
- MIC ([3]; ATCC7644, 18 h): > 5000 µg/mL and > 14800 µM
- MIC ([4]; ATCC14579, 18 h): > 5000 µg/mL
- MIC ([5]; ATCC29212, 18 h): > 5000 µg/mL and > 14800 µM
- MIC ([6]; ATCC27853, 18 h): > 5000 µg/mL and > 14800 µM
- MIC ([7]; ATCC25923, 18 h): 5000 µg/mL
- MIC ([8]; MRSA, 18 h): > 5000 µg/mL
- MIC ([9]; 18 h): 5000 µg/mL and 14800 µM

SMILES: ON=Cc1cc[n+](Cc2ccc(C(F)(F)F)cc2)cc1 (as salt: bromide) [Py-BnCF3, N-(p-(trifluoromethyl))benzyl-4-hydroxyiminomethylpyridinium bromide]
- melting point: 186 to 187 °C

SMILES: CO/N=C(\C(=O)N[C@@H]1C(=O)N2C(C(=O)O)=C(COC(C)=O)CS[C@H]12)c1csc(N)n1 [Cefotaxime, reference compound]
- MIC ([2]; ATCC25922, E. coli ATCC25922, standards, read-out: MIC): 0.2 µg/mL and 0.4 µM
- MIC ([3]; L. monocytogenes ATCC7644, standards, read-out: MIC): 3.7 µg/mL and 10 µM
- MIC ([4]; B. cereus ATCC14579, standards, read-out: MIC): 3.7 µg/mL and 10 µM
- MIC ([5]; E. faecalis ATCC29212, standards, read-out: MIC): 29.8 µg/mL and 60 µM
- MIC ([6]; P. aeruginosa ATCC27853, standards, read-out: MIC): 59.7 µg/mL and 130 µM
- MIC ([7]; S. aureus ATCC25923, standards, read-out: MIC): 3.7 µg/mL and 10 µM
- MIC ([8]; S. aureus clinical/MRSA, read-out: MIC): > 119 µg/mL
- MIC ([8]; S. aureus clinical/MRSA, standards, read-out: MIC): > 250 µM
- MIC ([9]; standards): 0.1 µg/mL and 0.2 µM

SMILES: Cc1ccc(C[n+]2ccc(C=NO)cc2)cc1 [Py-BnCH3]
- MIC [2, 11]: 5000 µg/mL and 16300 µM
- MIC [3, 12]: 1250 µg/mL and 4070 µM
- MIC [4, 13]: 5000 µg/mL
- MIC [5, 14]: 2500 µg/mL and 8140 µM
- MIC [6, 15]: > 5000 µg/mL and > 16300 µM
- MIC [7, 16]: 2500 µg/mL
- MIC ([8]; MRSA, 18 h): 5000 µg/mL
- MIC ([9]; 18 h): 630 µg/mL

SMILES: ON=Cc1cc[n+](Cc2ccc(C(F)(F)F)cc2)cc1 [Py-BnCF3, N-(p-(trifluoromethyl))benzyl-4-hydroxyiminomethylpyridinium bromide]
- MIC [2, 11]: 2500 µg/mL and 6920 µM
- MIC [3, 12]: 2500 µg/mL and 6920 µM
- MIC [4, 13]: 1250 µg/mL
- MIC [5, 14]: 2500 µg/mL and 6920 µM
- MIC [6, 15]: 5000 µg/mL and 13800 µM
- MIC [7, 16]: 630 µg/mL
- MIC ([8]; MRSA, 18 h): 1250 µg/mL
- MIC ([9]; 18 h): 1250 µg/mL and 3460 µM

SMILES: ON=Cc1cc[n+](Cc2ccc(F)cc2)cc1.[Br-] [Py-BnF, N-p-fluorobenzyl-4-hydroxyiminomethylpyridinium bromide]
- MIC [2, 10]: 630 µg/mL
- MIC ([3]; ATCC7644, 18 h): > 5000 µg/mL and > 16100 µM
- MIC ([4]; ATCC14579, 18 h): > 5000 µg/mL
- MIC ([5]; ATCC29212, 18 h): > 5000 µg/mL and > 16100 µM
- MIC ([6]; ATCC27853, 18 h): > 5000 µg/mL and > 16100 µM
- MIC ([7]; ATCC25923, 18 h): 5000 µg/mL
- MIC ([8]; MRSA, 18 h): > 5000 µg/mL
- MIC ([9]; 18 h): > 5000 µg/mL and > 16100 µM
- melting point: 181 to 183 °C
